Measured values reported in patent US10898469B2, “Imidazolylamide derivative” (Sumitomo Dainippon Pharma Co., Ltd., priority 2016, dated 2021).
Where two headings read alike, the source gives them in different places.

Key:
Type in all cases: cell-based, human
[1] = tested on: HCT-116 cells; assay: Inhibition test for sphere-forming ability of cancer cells (Test Example 1), HCT-116; settings: for (100%-inhibition rate of cell proliferation) at 1 μmol/L, HCT-116 / IC50: HCT-116 cells; for (100%-inhibition rate of cell proliferation) at 1 μmol/L, HCT-116: value with %; for IC50: concentration for 50% inhibition of cell proliferation, read-out: IC50 (μmol/L) HCT-116 (Sphere IC50 value); for inhibitory effect on the sphere-forming ability of cancer cells: Test Example 1, summary in words, cell line not given (HCT-116, HT-29, FaDu tested)
Text: (§1) The reliable methods established for measuring the self-renewal ability of cells which is one of the CSC's properties include a method for measuring the sphere-forming ability of cancer cells in non-adherent condition in the absence of serum (Cancer Res 65, 5506-5511 (2005)). Human colorectal cancer-derived HCT-116 cells, human colon-adenocarcinoma-derived HT-29 cells, and human pharyngeal cancer-derived FaDu cells were available from American Type Culture Collection (ATCC). HCT-116 cells and HT-29 cells were cultured at 37° C. under 5% CO2 using the McCoy's 5a medium containing 10% fetal bovine serum (FBS) and 1% penicillin/streptomycin, and FaDu cells were cultured at 37° C. under 5% CO2 using the MEM medium containing 10% FBS, 1% non-essential amino acid, 1% sodium pyruvate, and 1% penicillin/streptomycin. HCT-116 cells, HT-29 cells, and FaDu cells were seeded in a 384 Well Black Clear Bottom Ultra-Low Attachment Microplate (Corning Cat. No. 3827) in an amount of 350-800 cells/well using the DMEM/F12 medium containing 2% B27 supplement (GIBCO), 20 ng/mL epidermal growth factor (EGF) (peprotech), 10 ng/mL basic fibroblast growth factor (bFGF) (peprotech), 5 μg/mL insulin (Sigma), and 1% penicillin/streptomycin. Each test compound was added into each well to adjust the final concentration of DMSO to 0.1%, and the cells were cultured for 4 days. The number of viable cells in each well was then measured with CellTiter-Glo® Luminescent Cell Viability Assay (Promega) to calculate the concentration of each test compound for 50% inhibition of cell proliferation (Sphere IC50 value; μmol/L).
(§2) The experiment of Test Example 1 was performed for each compound of each Example. The concentration of each test compound for 50% inhibition of cell proliferation (Sphere IC50 value; μmol/L) is shown in the following Table.

[2] = tested on: FaDu cells; assay: Inhibition test for sphere-forming ability of cancer cells (Test Example 1), FaDu; settings: for (100%-inhibition rate of cell proliferation) at 1 μmol/L, FaDu: value with %; for IC50: concentration for 50% inhibition of cell proliferation, read-out: IC50 (μmol/L) FaDu (Sphere IC50 value)
Text: as §1, §2

[3] = tested on: HT-29 cells; assay: Inhibition test for sphere-forming ability of cancer cells (Test Example 1), HT-29; settings: for (100%-inhibition rate of cell proliferation) at 1 μmol/L, HT-29: value with %; for IC50: concentration for 50% inhibition of cell proliferation, read-out: IC50 (μmol/L) HT-29 (Sphere IC50 value)
Text: as §1, §2

| IC50 [1] [µmol/L] | IC50 [2] [µmol/L] | IC50 [3] [µmol/L] | SMILES | also measured |
| --- | --- | --- | --- | --- |
| > 10 | 7.75 | 7.58 | O=C(/C=C/c1ccccn1)Nc1cn(Cc2cccc(Cl)c2)cn1 [Example 98] | – |
| 0.96 | 3.77 | 1.2 | O=C(/C=C/c1ccccc1C(F)(F)F)Nc1cn(Cc2cccc(Cl)c2)cn1 [Example 55] | – |
| 0.22 | 0.75 | 0.48 | Cc1ccc(F)c(Cn2cnc(NC(=O)c3ccc(OC(C)C)nc3)c2)c1F [Example 217] | – |
| 8.17 | 6.32 | 7.87 | O=C(/C=C/c1c[nH]cn1)Nc1cn(Cc2cccc(Cl)c2)cn1 [Example 90] | – |
| 8.98 | 0.09 | 0.08 | O=C(/C=C/c1ccc(-c2ccccc2)cc1)Nc1cn(Cc2cccc(Cl)c2)cn1 [Example 70] | – |
| 0.94 | 4.36 | 3.3 | O=C(/C=C/c1cccc(F)c1)Nc1cn(Cc2cccc(Cl)c2)cn1 [Example 57] | – |
| 0.81 | 0.79 | 0.82 | CCOc1ccc(C(=O)Nc2cn(Cc3cccc(C(F)(F)F)c3)cn2)cn1 [Example 210] | – |
| 4.56 | 0.86 | 0.72 | COCCCOc1ccc(C(=O)Nc2cn(Cc3cccc(Cl)c3)cn2)cn1 [Example 204] | – |
| 0.88 | 0.85 | 0.66 | CC(C)Oc1ccc(C(=O)Nc2cn(Cc3cccc(OC(F)(F)F)c3)cn2)cn1 [Example 215] | – |
| 0.87 | 0.87 | 0.84 | COc1ccc(OC)c(/C=C/C(=O)Nc2cn(Cc3cccc(Cl)c3)cn2)c1 [Example 53] | – |
| 4.24 | 6.45 | 4.95 | COc1ccc(C(=O)Nc2cn(Cc3cccc(C(F)(F)F)c3)cn2)cn1 [Example 209] | – |
| > 10 | > 10 | 5.55 | O=C(Nc1cn(Cc2cccc(C(F)(F)F)c2)cn1)c1ccc2cccnc2c1 [Example 195] | – |
| 0.76 | 0.81 | 0.65 | Cc1ccc(F)c(Cn2cnc(NC(=O)c3ccc(OCC(F)(F)F)nc3)c2)c1F [Example 223] | – |
| 0.9 | 0.9 | 0.71 | CCOc1ccc(C(=O)Nc2cn(Cc3cccc(Cl)c3)cn2)cn1 [Example 203] | – |

Continued, molecule first:

| SMILES | IC50 [1] [µmol/L] | IC50 [2] [µmol/L] | IC50 [3] [µmol/L] | also measured |
| --- | --- | --- | --- | --- |
| COc1ccc(C(=O)Nc2cn(Cc3cccc(OC(F)(F)F)c3)cn2)cc1OC [Example 166] | – | – | – | (100%-inhibition rate of cell proliferation) at 1 μmol/L, HCT-116 [1]: 36.8%; (100%-inhibition rate of cell proliferation) at 1 μmol/L, FaDu [2]: 23.8%; (100%-inhibition rate of cell proliferation) at 1 μmol/L, HT-29 [3]: 33.0% |
| COc1ccc(Cn2cnc(NC(=O)c3ccc(OC)c(OC)c3)c2)cc1 [Example 164] | – | – | – | (100%-inhibition rate of cell proliferation) at 1 μmol/L, HCT-116 [1]: 37.4%; (100%-inhibition rate of cell proliferation) at 1 μmol/L, FaDu [2]: 92.3%; (100%-inhibition rate of cell proliferation) at 1 μmol/L, HT-29 [3]: 89.0% |
| CCNC(=O)c1ccc(/C=C/C(=O)Nc2cn(Cc3cccc(Cl)c3)cn2)cn1 [Example 26, (E)-5-(3-((1-(3-Chlorobenzyl)-1H-imidazol-4-yl)amino)-3-oxoprop-1-en-1-yl)-N-ethylpicolinamide] | – | – | – | IC50 ([1]; Homo sapiens): > 10 µmol/L; IC50 ([2]; Homo sapiens): 5.49 µmol/L; IC50 ([3]; Homo sapiens): 5.83 µmol/L |
| COc1ccc(C(=O)Nc2cn(Cc3cccc(C(F)(F)F)c3)cn2)cc1OC [Example 165] | – | – | – | (100%-inhibition rate of cell proliferation) at 1 μmol/L, HCT-116 [1]: 31.9%; (100%-inhibition rate of cell proliferation) at 1 μmol/L, FaDu [2]: 24.1%; (100%-inhibition rate of cell proliferation) at 1 μmol/L, HT-29 [3]: 28.0% |
| COc1cc(/C=C/C(=O)Nc2cn(Cc3cccc(Cl)c3)cn2)c([N+](=O)[O-])cc1OC [Example 75] | 7.56 | 7.19 | 6.45 | – |
| COc1ccc(C(=O)Nc2cn(Cc3c(F)ccc(C)c3F)cn2)cc1OC [Example 167] | – | – | – | (100%-inhibition rate of cell proliferation) at 1 μmol/L, HCT-116 [1]: 30.5%; (100%-inhibition rate of cell proliferation) at 1 μmol/L, FaDu [2]: 59.3%; (100%-inhibition rate of cell proliferation) at 1 μmol/L, HT-29 [3]: 15.6% |
| O=C(Nc1cn(Cc2cccc(C(F)(F)F)c2)cn1)c1ccc(=O)[nH]c1 [Example 199] | – | – | – | (100%-inhibition rate of cell proliferation) at 1 μmol/L, HCT-116 [1]: 39.8%; (100%-inhibition rate of cell proliferation) at 1 μmol/L, FaDu [2]: 25.9%; (100%-inhibition rate of cell proliferation) at 1 μmol/L, HT-29 [3]: 31.2% |
| O=C(/C=C/c1ccc(C(=O)N2CCCC2)nc1)Nc1cn(Cc2cccc(Cl)c2)cn1 [Example 28] | – | – | – | IC50 ([1]; Homo sapiens): 7.89 µmol/L; IC50 ([2]; Homo sapiens): 0.8 µmol/L; IC50 ([3]; Homo sapiens): 0.91 µmol/L |
| COc1ccc(/C=C/C(=O)Nc2cn(Cc3cccc(Cl)c3)cn2)cc1 [Example 118, (E)-N-(1-(3-Chlorobenzyl)-1H-imidazol-4-yl)-3-(4-methoxyphenyl)acrylamide] | – | – | – | IC50 ([1]; Homo sapiens): 0.1 µmol/L; inhibitory effect on the sphere-forming ability of cancer cells [1]: particularly potent inhibitory effect; IC50 ([2]; Homo sapiens): 0.07 µmol/L; IC50 ([3]; Homo sapiens): < 0.01 µmol/L |
| CCOc1ccc(/C=C/C(=O)Nc2cn(Cc3cccc(Cl)c3)cn2)cc1 [Example 74] | 0.05 | < 0.01 | < 0.01 | inhibitory effect on the sphere-forming ability of cancer cells [1]: particularly potent inhibitory effect |
| Cc1cccc(/C=C/C(=O)Nc2cn(Cc3c(F)ccc(C)c3F)cn2)c1 [Example 115] | – | – | – | IC50 ([1]; Homo sapiens): 0.79 µmol/L; IC50 ([2]; Homo sapiens): 0.79 µmol/L; IC50 ([3]; Homo sapiens): 0.66 µmol/L |
| O=C(/C=C/c1cccs1)Nc1cn(Cc2cccc(Cl)c2)cn1 [Example 94] | 7.88 | 4.57 | 0.97 | – |
| COc1ccc(C(=O)Nc2cn(Cc3cccc(Oc4ccccc4)c3)cn2)cc1OC [Example 297] | – | – | – | (100%-inhibition rate of cell proliferation) at 1 μmol/L, HCT-116 [1]: 56.6%; (100%-inhibition rate of cell proliferation) at 1 μmol/L, FaDu [2]: 31.4%; (100%-inhibition rate of cell proliferation) at 1 μmol/L, HT-29 [3]: 33.7% |
| COCCOc1cc(/C=C/C(=O)Nc2cn(Cc3cccc(Cl)c3)cn2)ccc1OC [Example 29, (E)-N-(1-(3-Chlorobenzyl)-1H-imidazol-4-yl)-3-(4-methoxy-3-(2-methoxyethoxy)phenyl)acrylamide] | – | – | – | IC50 ([1]; Homo sapiens): 5.87 µmol/L; IC50 ([2]; Homo sapiens): 0.76 µmol/L; IC50 ([3]; Homo sapiens): 0.89 µmol/L |
| O=C(/C=C/c1ccccc1F)Nc1cn(Cc2cccc(Cl)c2)cn1 [Example 50] | 2.48 | 6.7 | 0.89 | – |
| O=C(/C=C/c1ccc(F)cc1Br)Nc1cn(Cc2cccc(Cl)c2)cn1 [Example 78] | 7.31 | 8.9 | 6.34 | – |
| O=C(/C=C/c1cccc(Oc2ccccc2)c1)Nc1cn(Cc2cccc(OC(F)(F)F)c2)cn1 [Example 108] | – | – | – | IC50 ([1]; Homo sapiens): 3.31 µmol/L; IC50 ([2]; Homo sapiens): 9.77 µmol/L; IC50 ([3]; Homo sapiens): 3.43 µmol/L |
| COc1cc(/C=C/C(=O)Nc2cn(Cc3cccc(Cl)c3)cn2)cc(OC)c1OC [Example 82] | 6.51 | 1.76 | 0.99 | – |
| CCOc1cccc(/C=C/C(=O)Nc2cn(Cc3cccc(Cl)c3)cn2)c1 [Example 64] | 9.79 | 0.59 | 0.69 | – |
| O=C(Nc1cn(Cc2cccc(Cl)c2)cn1)c1ccc(OCc2ccccc2)nc1 [Example 206] | 0.69 | 0.09 | 0.09 | inhibitory effect on the sphere-forming ability of cancer cells [1]: particularly potent inhibitory effect |
| O=C(Nc1cn(Cc2cccc(Cl)c2)cn1)/C(F)=C/c1cccnc1 [Example 43, (Z)—N-(1-(3-Chlorobenzyl)-1H-imidazol-4-yl)-2-fluoro-3-(pyridin-3-yl)acrylamide] | – | – | – | IC50 ([1]; Homo sapiens): 0.85 µmol/L; IC50 ([2]; Homo sapiens): 0.69 µmol/L; IC50 ([3]; Homo sapiens): 0.49 µmol/L |
| Cc1cccc(/C=C/C(=O)Nc2cn(Cc3cccc(Cl)c3)cn2)c1 [Example 73] | 4.53 | 0.85 | 1.49 | – |
| CCOc1ccc(/C=C/C(=O)Nc2cn(Cc3cccc(C(F)(F)F)c3)cn2)cn1 [Example 107] | – | – | – | IC50 ([1]; Homo sapiens): > 10 µmol/L; IC50 ([2]; Homo sapiens): 0.07 µmol/L; IC50 ([3]; Homo sapiens): 0.04 µmol/L |
| COc1ccccc1/C=C/C(=O)Nc1cn(Cc2cccc(Cl)c2)cn1 [Example 77] | 0.84 | < 0.01 | 0.38 | inhibitory effect on the sphere-forming ability of cancer cells [1]: particularly potent inhibitory effect |
| COc1cccc(OC)c1/C=C/C(=O)Nc1cn(Cc2cccc(Cl)c2)cn1 [Example 76] | 6.18 | 4.11 | 2.71 | – |
| O=C(/C=C/c1cccnc1)Nc1cn(Cc2cccc(C(F)(F)F)c2)cn1 [Example 103] | – | – | – | IC50 ([1]; Homo sapiens): 0.87 µmol/L; IC50 ([2]; Homo sapiens): 0.6 µmol/L; IC50 ([3]; Homo sapiens): 0.6 µmol/L |
| COc1ccc(C(=O)Nc2cn(Cc3cccc(C)c3)cn2)cc1OC [Example 291] | – | – | – | (100%-inhibition rate of cell proliferation) at 1 μmol/L, HCT-116 [1]: 70.8%; (100%-inhibition rate of cell proliferation) at 1 μmol/L, FaDu [2]: 37.8%; (100%-inhibition rate of cell proliferation) at 1 μmol/L, HT-29 [3]: 37.1% |
